Reference: ChEMBL document CHEMBL5291721, “A preclinical secondary pharmacology resource illuminates target-adverse drug reaction associations of marketed drugs” (Nat Commun, 2023)

Tests used:
[1] = biological target: T1, Alpha-1A adrenergic receptor (Homo sapiens, UniProt P35348); assay type: functional, cell-based
T1 sequence (P35348 whole entry): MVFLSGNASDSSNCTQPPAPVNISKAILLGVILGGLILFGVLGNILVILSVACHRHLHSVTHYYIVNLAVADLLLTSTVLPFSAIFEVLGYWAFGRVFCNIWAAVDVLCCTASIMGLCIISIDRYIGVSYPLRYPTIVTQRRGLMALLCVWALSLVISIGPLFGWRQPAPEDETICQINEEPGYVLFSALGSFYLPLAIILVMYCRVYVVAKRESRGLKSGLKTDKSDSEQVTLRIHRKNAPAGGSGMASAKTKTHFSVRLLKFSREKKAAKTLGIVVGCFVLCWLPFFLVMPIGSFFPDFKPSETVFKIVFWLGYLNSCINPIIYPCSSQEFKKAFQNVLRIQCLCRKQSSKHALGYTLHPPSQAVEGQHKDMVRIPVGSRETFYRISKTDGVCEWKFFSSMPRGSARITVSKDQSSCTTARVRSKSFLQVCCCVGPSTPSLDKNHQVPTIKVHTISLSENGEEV

Histamine H2 receptor = Histamine H2 receptor (Homo sapiens, UniProt P25021); assay type: functional, cell-based
[2] = biological target: T2, 5-hydroxytryptamine receptor 1A (Homo sapiens, UniProt P08908); assay type: functional, cell-based
T2 sequence (P08908 whole entry): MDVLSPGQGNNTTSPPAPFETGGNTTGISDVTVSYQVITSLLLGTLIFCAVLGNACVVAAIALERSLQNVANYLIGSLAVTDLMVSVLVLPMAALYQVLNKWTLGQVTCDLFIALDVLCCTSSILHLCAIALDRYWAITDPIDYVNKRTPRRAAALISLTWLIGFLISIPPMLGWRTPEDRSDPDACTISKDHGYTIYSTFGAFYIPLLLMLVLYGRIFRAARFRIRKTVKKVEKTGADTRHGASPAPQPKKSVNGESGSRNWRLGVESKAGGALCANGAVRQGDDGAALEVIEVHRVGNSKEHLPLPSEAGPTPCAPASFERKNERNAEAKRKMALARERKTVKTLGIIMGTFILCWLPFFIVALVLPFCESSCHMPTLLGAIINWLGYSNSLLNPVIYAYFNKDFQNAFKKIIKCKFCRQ

[3] = biological target: T2, 5-hydroxytryptamine receptor 1A; assay type: functional, cell-based; remark: listed apart in the source
[4] = biological target: T1, Alpha-1A adrenergic receptor; assay type: functional, cell-based; remark: listed apart in the source
Progesterone receptor = biological target: T3, Progesterone receptor (Homo sapiens, UniProt P06401); assay type: functional
T3 sequence (P06401 whole entry): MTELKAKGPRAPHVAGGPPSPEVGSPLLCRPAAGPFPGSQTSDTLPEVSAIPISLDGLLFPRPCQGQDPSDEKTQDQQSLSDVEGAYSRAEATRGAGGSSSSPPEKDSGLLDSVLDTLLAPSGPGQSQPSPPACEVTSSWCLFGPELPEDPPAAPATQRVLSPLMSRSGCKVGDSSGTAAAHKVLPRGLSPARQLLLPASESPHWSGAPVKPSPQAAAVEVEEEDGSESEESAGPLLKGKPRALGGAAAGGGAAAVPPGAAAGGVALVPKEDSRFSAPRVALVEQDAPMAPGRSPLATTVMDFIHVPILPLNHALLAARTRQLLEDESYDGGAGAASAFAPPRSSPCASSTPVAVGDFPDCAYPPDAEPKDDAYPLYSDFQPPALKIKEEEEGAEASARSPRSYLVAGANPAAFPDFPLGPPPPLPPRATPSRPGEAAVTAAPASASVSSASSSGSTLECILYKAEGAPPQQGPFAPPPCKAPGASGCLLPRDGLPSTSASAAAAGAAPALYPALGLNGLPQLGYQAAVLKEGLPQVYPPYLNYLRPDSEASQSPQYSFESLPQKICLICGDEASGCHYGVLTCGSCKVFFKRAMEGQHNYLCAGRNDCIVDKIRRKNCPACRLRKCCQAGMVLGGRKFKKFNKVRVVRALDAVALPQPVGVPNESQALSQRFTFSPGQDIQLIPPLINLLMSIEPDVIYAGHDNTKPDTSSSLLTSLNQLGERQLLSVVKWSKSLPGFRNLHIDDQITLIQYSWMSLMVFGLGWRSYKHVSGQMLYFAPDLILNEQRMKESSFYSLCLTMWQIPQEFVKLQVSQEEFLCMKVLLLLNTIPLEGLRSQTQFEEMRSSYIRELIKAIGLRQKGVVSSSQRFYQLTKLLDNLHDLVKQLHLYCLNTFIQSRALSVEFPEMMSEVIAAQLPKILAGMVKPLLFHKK

[5] = biological target: T4, Prostaglandin G/H synthase 1 (Rattus norvegicus, UniProt Q63921); assay type: functional
T4 sequence (Q63921 whole entry): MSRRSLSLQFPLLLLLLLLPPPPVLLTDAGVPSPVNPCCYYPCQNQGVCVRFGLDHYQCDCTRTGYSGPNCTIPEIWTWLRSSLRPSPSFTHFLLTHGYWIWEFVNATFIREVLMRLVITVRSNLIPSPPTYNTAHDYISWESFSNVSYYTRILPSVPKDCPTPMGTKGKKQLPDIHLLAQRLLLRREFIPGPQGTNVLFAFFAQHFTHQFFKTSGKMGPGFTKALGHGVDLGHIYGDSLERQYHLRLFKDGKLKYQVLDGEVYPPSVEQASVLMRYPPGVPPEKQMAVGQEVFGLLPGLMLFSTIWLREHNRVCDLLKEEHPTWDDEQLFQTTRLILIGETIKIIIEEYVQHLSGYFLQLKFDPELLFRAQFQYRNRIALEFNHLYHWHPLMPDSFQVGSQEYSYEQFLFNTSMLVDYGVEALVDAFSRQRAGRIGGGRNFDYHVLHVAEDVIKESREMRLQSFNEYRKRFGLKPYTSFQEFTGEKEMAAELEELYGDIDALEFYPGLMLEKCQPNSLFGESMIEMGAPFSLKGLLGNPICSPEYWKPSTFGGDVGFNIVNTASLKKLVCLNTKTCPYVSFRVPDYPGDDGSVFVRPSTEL

[6] = biological target: Sodium-dependent dopamine transporter (Homo sapiens, UniProt Q01959)
[7] = biological target: Sodium-dependent noradrenaline transporter (Homo sapiens, UniProt P23975)
Bile salt export pump = Bile salt export pump (Homo sapiens, UniProt O95342); assay type: functional
Also: assay procedure not described here.

Histamine H2 receptor, sequence (P25021 whole entry): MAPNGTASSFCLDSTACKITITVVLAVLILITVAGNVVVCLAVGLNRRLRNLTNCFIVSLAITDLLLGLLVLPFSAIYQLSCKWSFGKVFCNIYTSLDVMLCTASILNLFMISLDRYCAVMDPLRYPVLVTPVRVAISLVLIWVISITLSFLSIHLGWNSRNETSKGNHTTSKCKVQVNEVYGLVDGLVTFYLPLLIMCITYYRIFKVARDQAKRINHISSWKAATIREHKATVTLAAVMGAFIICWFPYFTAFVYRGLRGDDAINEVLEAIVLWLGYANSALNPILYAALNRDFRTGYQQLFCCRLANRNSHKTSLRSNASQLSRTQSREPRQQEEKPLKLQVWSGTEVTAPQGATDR
Sodium-dependent noradrenaline transporter, sequence (P23975 whole entry): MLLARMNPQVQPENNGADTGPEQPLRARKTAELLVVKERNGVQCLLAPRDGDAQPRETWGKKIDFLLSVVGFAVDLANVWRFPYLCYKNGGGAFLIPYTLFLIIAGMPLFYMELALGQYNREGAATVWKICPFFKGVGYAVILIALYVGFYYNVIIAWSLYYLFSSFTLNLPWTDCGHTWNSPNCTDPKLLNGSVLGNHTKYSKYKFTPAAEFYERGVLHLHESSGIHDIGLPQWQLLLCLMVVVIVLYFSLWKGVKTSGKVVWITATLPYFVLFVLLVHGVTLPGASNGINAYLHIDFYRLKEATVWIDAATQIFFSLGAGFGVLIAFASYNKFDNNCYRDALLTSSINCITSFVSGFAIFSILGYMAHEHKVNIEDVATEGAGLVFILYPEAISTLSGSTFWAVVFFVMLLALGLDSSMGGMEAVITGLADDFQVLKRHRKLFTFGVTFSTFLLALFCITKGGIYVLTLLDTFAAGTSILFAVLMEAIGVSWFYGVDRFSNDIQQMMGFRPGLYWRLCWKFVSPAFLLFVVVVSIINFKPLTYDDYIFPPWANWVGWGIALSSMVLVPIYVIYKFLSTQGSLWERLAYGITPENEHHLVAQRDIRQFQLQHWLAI
Bile salt export pump, sequence (O95342 whole entry): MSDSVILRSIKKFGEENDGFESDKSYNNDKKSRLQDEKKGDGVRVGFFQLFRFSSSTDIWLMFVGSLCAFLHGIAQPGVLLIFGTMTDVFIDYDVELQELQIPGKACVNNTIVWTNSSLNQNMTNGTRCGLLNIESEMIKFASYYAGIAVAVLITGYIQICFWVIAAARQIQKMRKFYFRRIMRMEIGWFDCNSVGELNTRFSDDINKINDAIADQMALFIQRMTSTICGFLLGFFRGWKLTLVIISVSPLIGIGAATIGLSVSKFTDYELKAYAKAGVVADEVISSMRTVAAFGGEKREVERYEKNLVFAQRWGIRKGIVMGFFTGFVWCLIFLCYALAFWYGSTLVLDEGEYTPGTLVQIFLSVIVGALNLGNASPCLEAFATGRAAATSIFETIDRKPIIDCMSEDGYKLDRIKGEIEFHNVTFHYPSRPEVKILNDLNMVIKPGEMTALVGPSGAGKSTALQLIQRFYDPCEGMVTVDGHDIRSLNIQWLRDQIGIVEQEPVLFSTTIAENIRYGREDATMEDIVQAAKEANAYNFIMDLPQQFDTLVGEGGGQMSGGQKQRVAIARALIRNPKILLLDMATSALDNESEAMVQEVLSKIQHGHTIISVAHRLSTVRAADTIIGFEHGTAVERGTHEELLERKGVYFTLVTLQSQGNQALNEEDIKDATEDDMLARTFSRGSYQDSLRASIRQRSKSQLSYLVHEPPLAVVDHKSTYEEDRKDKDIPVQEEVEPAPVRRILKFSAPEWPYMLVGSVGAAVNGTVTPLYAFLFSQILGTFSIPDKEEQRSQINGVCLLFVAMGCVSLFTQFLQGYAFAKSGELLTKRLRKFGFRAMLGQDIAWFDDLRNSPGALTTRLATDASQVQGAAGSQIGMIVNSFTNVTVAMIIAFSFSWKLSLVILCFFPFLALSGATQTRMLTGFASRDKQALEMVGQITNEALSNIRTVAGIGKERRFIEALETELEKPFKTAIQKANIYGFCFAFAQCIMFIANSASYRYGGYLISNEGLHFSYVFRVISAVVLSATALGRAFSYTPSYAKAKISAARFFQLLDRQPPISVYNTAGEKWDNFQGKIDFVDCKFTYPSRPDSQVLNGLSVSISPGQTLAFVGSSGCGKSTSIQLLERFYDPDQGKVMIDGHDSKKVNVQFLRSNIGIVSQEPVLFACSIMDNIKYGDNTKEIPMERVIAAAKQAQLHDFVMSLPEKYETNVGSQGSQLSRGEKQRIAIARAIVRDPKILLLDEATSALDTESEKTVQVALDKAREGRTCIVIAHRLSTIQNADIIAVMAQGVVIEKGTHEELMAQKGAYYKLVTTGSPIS
Sodium-dependent dopamine transporter, sequence (Q01959 whole entry): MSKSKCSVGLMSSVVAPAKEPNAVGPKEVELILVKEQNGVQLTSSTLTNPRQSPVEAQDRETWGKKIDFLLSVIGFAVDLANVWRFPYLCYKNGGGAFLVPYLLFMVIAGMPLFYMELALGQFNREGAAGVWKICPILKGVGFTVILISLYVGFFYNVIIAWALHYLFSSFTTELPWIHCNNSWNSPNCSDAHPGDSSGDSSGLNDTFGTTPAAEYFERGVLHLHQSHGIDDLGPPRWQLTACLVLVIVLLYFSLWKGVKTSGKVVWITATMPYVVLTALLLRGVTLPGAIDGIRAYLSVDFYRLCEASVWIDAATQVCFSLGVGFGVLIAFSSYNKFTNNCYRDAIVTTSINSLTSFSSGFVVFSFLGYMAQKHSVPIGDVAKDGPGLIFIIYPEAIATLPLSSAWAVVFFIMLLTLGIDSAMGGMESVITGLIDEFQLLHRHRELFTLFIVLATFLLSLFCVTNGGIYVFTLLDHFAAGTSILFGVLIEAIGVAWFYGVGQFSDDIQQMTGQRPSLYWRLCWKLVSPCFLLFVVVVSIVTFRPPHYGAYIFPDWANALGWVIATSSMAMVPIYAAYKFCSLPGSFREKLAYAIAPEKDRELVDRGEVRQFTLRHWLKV

## CC[C@@H]1C[C@]1(NC(=O)[C@@H]1C[C@@H]2CN1C(=O)[C@H](C(C)(C)C)NC(=O)OCC(C)(C)CCCCc1cccc3c1CN(C3)C(=O)O2)C(=O)NS(=O)(=O)C1CC1
[1]
  AC50: > 3 µM

## C=C(C)CNc1ccc(C(C)C(=O)O)cc1 (configuration not stated) [ALMINOPROFEN]
[1]
  AC50: > 30 µM

## CC(C)NC(=N)NC(=N)Nc1ccc(Cl)c(Cl)c1 [CHLORPROGUANIL]
Histamine H2 receptor
  AC50: > 30 µM
[2]
  AC50: > 30 µM
[3]
  AC50: > 30 µM
[4]
  AC50: 12 µM

## Cc1cc(C2CCCCC2)n(O)c(=O)c1 [CICLOPIROX]
Progesterone receptor
  AC50: > 30 µM
[5]
  AC50: > 3 µM
[6]
  AC50: > 30 µM
[7]
  AC50: > 30 µM
[4]
  AC50: > 30 µM

## C[N+](C)(C)CCOP(=O)(O)OP(=O)([O-])OC[C@H]1O[C@@H](n2ccc(N)nc2=O)[C@H](O)[C@@H]1O [CITICOLINE]
[1]
  AC50: > 30 µM
Histamine H2 receptor
  AC50: > 30 µM
[2]
  AC50: > 30 µM
[4]
  AC50: > 30 µM

## C[C@H]1O[C@@H](O[C@H]2CC[C@@]3(C)[C@H](CC[C@@H]4[C@@H]3C[C@@H](O)[C@]3(C)[C@@H](C5=CC(=O)OC5)CC[C@]43O)C2)C[C@H](O)[C@@H]1O[C@H]1C[C@H](O)[C@H](O[C@H]2C[C@H](O)[C@H](O[C@@H]3O[C@H](CO)[C@@H](O)[C@H](O)[C@H]3O)[C@@H](C)O2)[C@@H](C)O1 [DESLANOSIDE]
[1]
  AC50: > 30 µM

## CC[C@H]1OC(=O)[C@H](C)[C@@H](O[C@H]2C[C@@](C)(OC)[C@@H](O)[C@H](C)O2)[C@H](C)[C@@H](O[C@@H]2O[C@H](C)C[C@H](N(C)C)[C@H]2O)[C@](C)(O)C[C@@H](C)[C@@H]2N[C@@H](COCCOC)O[C@H]([C@H]2C)[C@]1(C)O [DIRITHROMYCIN]
[1]
  AC50: > 30 µM

## CCCCc1oc2ccc(NS(C)(=O)=O)cc2c1C(=O)c1ccc(OCCCN(CCCC)CCCC)cc1 [DRONEDARONE]
[1]
  AC50: 5.92 µM

## CNC[C@H](O)c1ccc(O)c(O)c1 [EPINEPHRINE]
Bile salt export pump
  AC50: > 300 µM
Progesterone receptor
  AC50: > 30 µM
[5]
  AC50: > 30 µM
[6]
  AC50: > 30 µM
[7]
  AC50: > 30 µM

## O=C(O)Cc1ccccc1Oc1ccc(Cl)cc1Cl [FENCLOFENAC]
[1]
  AC50: > 30 µM
Histamine H2 receptor
  AC50: > 10 µM
[2]
  AC50: > 10 µM
[3]
  AC50: > 10 µM
[5]
  AC50: > 30 µM
[6]
  AC50: > 10 µM
[7]
  AC50: > 10 µM
[4]
  AC50: > 30 µM

## CC(C)C(=O)Oc1ccc(CO)cc1[C@H](CCN(C(C)C)C(C)C)c1ccccc1 [FESOTERODINE]
[1]
  AC50: > 30 µM

## CC1(C)O[C@@H]2C[C@H]3[C@@H]4C[C@H](F)C5=CC(=O)C=C[C@]5(C)[C@@]4(F)[C@@H](O)C[C@]3(C)[C@]2(C(=O)CO)O1 [FLUOCINOLONE ACETONIDE]
[1]
  AC50: > 30 µM

## O=C(O)P(=O)(O)O [FOSCARNET]
[1]
  AC50: > 30 µM

## COc1ccccc1OC1(C)OC(=O)c2ccccc2O1 (configuration not stated) [GUAIMESAL]
[1]
  AC50: > 30 µM
Progesterone receptor
  AC50: > 30 µM
[6]
  AC50: > 30 µM
[7]
  AC50: > 30 µM

## C[N+](C)(CCCCCC[N+](C)(C)C1c2ccccc2-c2ccccc21)C1c2ccccc2-c2ccccc21 [HEXAFLUORENIUM]
[1]
  AC50: 3.09 µM

## CCCCC(CC)CN1CN(CC(CC)CCCC)CC(C)(N)C1 (configuration not stated) [HEXETIDINE]
[1]
  AC50: > 30 µM

## COc1c2occc2c(OC)c2c(=O)cc(C)oc12 [KHELLIN]
[1]
  AC50: > 30 µM

## CC(C)[C@@H]1CC[C@@H](C)C[C@H]1O [LEVOMENTHOL]
[1]
  AC50: > 30 µM

## COC(=O)[C@@H](N)Cc1ccc(O)c(O)c1 [MELEVODOPA]
[1]
  AC50: > 30 µM

## C=N[C@@H](C(=O)N[C@@H]1C(=O)N2[C@@H]1SC(C)(C)[C@@H]2C(=O)O)c1ccccc1 [METAMPICILLIN]
[1]
  AC50: > 30 µM

## O=C(NNCS(=O)(=O)O)c1ccncc1 [METHANIAZIDE]
[1]
  AC50: > 30 µM

## Cc1cc(=O)[nH]c(=S)[nH]1 [METHYLTHIOURACIL]
[1]
  AC50: > 30 µM

## CC[C@@H](CO)NC(=O)[C@@H]1C=C2c3cccc4c3c(cn4C)C[C@H]2N(C)C1 [METHYSERGIDE]
Bile salt export pump
  AC50: 180 µM
Histamine H2 receptor
  AC50: 2.78 µM
[2]
  AC50: 0.2 µM
[5]
  AC50: > 30 µM
[6]
  AC50: > 30 µM
[7]
  AC50: > 30 µM

## CCNC(=O)/C=C(C)/C=C/C=C(C)/C=C/c1c(C)cc(OC)c(C)c1C [MOTRETINIDE]
[1]
  AC50: > 30 µM

## CN1Cc2c(N)cccc2C(c2ccccc2)C1 (configuration not stated) [NOMIFENSINE]
Bile salt export pump
  AC50: > 300 µM
Histamine H2 receptor
  AC50: > 30 µM
[2]
  AC50: > 30 µM
Progesterone receptor
  AC50: > 30 µM
[5]
  AC50: 7.5 µM
[4]
  AC50: 13 µM

## COc1ccc2[nH]c([S+]([O-])Cc3ncc(C)c(OC)c3C)nc2c1 (configuration not stated) [OMEPRAZOLE]
[1]
  AC50: > 30 µM

## CCCCC1C(=O)N(c2ccccc2)N(c2ccc(O)cc2)C1=O (configuration not stated) [OXYPHENBUTAZONE ANHYDROUS]
[1]
  AC50: > 30 µM

## O=C(O)CN(CCN(CC(=O)O)CC(=O)O)CCN(CC(=O)O)CC(=O)O [PENTETIC ACID]
[1]
  AC50: 1.28 µM

## Nc1cccc2c1C(=O)N(C1CCC(=O)NC1=O)C2=O (configuration not stated) [POMALIDOMIDE]
[1]
  AC50: > 30 µM

## C[Se]CC[C@H](N)C(=O)O [SELENOMETHIONINE]
[1]
  AC50: > 30 µM

## C[N+](C)(C)CCOC(=O)CCC(=O)OCC[N+](C)(C)C [SUXAMETHONIUM]
Bile salt export pump
  AC50: > 300 µM

## Cc1ccsc1C(=CCCN1CCC[C@@H](C(=O)O)C1)c1sccc1C [TIAGABINE]
[1]
  AC50: > 30 µM

## C[C@]12C=CC(=O)C=C1CC[C@H]1[C@@H]3C[C@@H](O)[C@](O)(C(=O)CO)[C@@]3(C)C[C@H](O)[C@@]12F [TRIAMCINOLONE]
[1]
  AC50: > 30 µM

## CC(C)C[C@H](NC(=O)[C@@H](O)[C@H](N)Cc1ccccc1)C(=O)O [UBENIMEX]
Histamine H2 receptor
  AC50: > 30 µM
[2]
  AC50: > 30 µM
[3]
  AC50: > 30 µM
Progesterone receptor
  AC50: > 30 µM
[5]
  AC50: > 30 µM
[6]
  AC50: > 30 µM
[7]
  AC50: > 30 µM
[4]
  AC50: > 30 µM

## CC[C@]12CCCN3CCc4c(n(c5ccccc45)[C@@](O)(C(=O)OC)C1)[C@@H]32 [VINCAMINE]
[1]
  AC50: > 30 µM

## CCC1=C[C@@H]2CN(C1)Cc1c([nH]c3ccccc13)[C@@](C(=O)OC)(c1cc3c(cc1OC)N(C)[C@H]1[C@@](O)(C(=O)OC)[C@H](OC(C)=O)[C@]4(CC)C=CCN5CC[C@]31[C@@H]54)C2 [VINORELBINE]
[1]
  AC50: > 30 µM
